# Data taken from US10533207B2, “Bioactivity testing structure for single cell tracking using gelling agents” (QuantaMatrix Inc., priority 2014, dated 2020).
# How the values were obtained:
# [1] = test system: ESBL negative E. coli (ATCC 35218); assay: AST on the DAC system at various inoculum concentrations; format: cell-based; details: unit inferred
# From the text: (§1) The first reason is that large inoculum amounts of antibiotic degrading proteins derived from bacteria may destroy antibiotics and result in an increase in MIC value. The other reason is that larger inoculum amounts of […] bacteria may decrease the number of antibiotic molecules relative to single cells of bacteria and result in an increase in MIC. To verify the reasons for the absence of inoculum effect in the DAC system, ESBL negative E. coli (ATCC 35218), ESBL positive E. coli (ATCC 25922), and clinically obtained E. coli strains, which are well known as a bacterial strain secreting antibiotic-degrading proteins, were tested at inoculum concentrations of 5×10^7, 5×10^6, and 5×10^5 CFU/ml. These concentrations indicate the concentrations of the bacteria in agarose for the DAC system and in liquid for the MDT system.
# [2] = test system: ESBL positive E. coli (ATCC 25922); assay: as above; format: cell-based; details: unit inferred
# From the text: as §1
# [3] = test system: clinically obtained E. coli strain #5; assay: as above; format: cell-based; details: #5 strain, unit inferred
# From the text: as §1
# [4] = test system: ESBL negative E. coli (ATCC 35218); assay: AST on the MDT system (broth microdilution) at various inoculum concentrations; format: cell-based
# Experimental: (§2) The MIC of cefepime against E. coli was determined according to the standard CLSI guideline except for the concentration of bacteria. 16 h after culture at 37° C., broth microdilution wells were examined.
# as §1
# [5] = test system: ESBL positive E. coli (ATCC 25922); assay: as above; format: cell-based
# Experimental: as §2, §1
# [6] = test system: clinically obtained E. coli strain #5; assay: as above; format: cell-based; details: #5 strain
# Experimental: as §2, §1
# [7] = test system: ESBL positive E. coli strains; assay: Residual efficacy of antibiotic solution after overnight culture, re-tested by MDT; format: cell-based; details: Escherichia coli
# Experimental: At each time point, the culture media were filtered to remove the cells and then added to different DST sets to measure the residual efficacies of the antibiotics. Both broth […] and DAC protocol were performed in the same manner as described above.
# The present inventors hypothesized that the reason why the absence of inoculum effect in the DAC system may be because proteins released from bacteria are trapped by agarose and cannot degrade the antibiotic, unlike under broth culture conditions. […] These concentrations indicate the concentrations of the bacteria in […] for the DAC system and in liquid for the MDT system.
# Thus, the final concentrations of the bacteria in the DAC and […] systems were the same. Cefepime was used in these tests. After culture overnight, the antibiotic solutions in the wells of the DAC and MDT systems was extracted and filtered to obtain the pure antibiotic. MDT using ESBL positive E. coli strains was conducted using the antibiotic.
# [8] = test system: M. tuberculosis H37Rv; assay: DST of MTB using the DAC system (MIC from time-lapse images); format: cell-based, Mycobacterium tuberculosis; details: for MIC: Mycobacterium tuberculosis, 120 h, images over 5 days
# [9] = test system: MDR-TB clinical strain; assay: as above; format: cell-based, Mycobacterium tuberculosis; details: for susceptibility determined from the MIC data and the critical concentrations: DAC system, MDR strain; for MIC: Mycobacterium tuberculosis, 120 h
# [10] = test system: XDR-TB clinical strain; assay: as above; format: cell-based, Mycobacterium tuberculosis; details: for susceptibility determined from the MIC data and the critical concentrations: DAC system, XDR strain; for MIC: Mycobacterium tuberculosis, 120 h
# [11] = test system: standard strain H37Rv; assay: Inoculum effect test, DST on the DAC system; format: cell-based, Mycobacterium tuberculosis
# [12] = test system: clinical strain 1088; assay: Inoculum effect on clinical strains on the DAC system; format: cell-based, Mycobacterium tuberculosis
# Experimental: (§3) Mycobacterium tuberculosis identified by ZN staining and grown from an L-J slope or MGIT tube and was subjected to DST. For the preparation of inoculation from the LJ culture, colonies up to 14 days were extracted from the grown culture. The colonies were shaken with glass beads to crush large lumps. To obtain a high density (˜5×10^9 CFU/ml), the suspension was centrifuged at 3000 g for 10 min and pellets were resuspended in sterile PBS. Subsequently, the suspension was added to liquid agarose, inoculated in a bacteria-agarose mixture within the range of 10^1 to 5×10^8 CFU/ml, and loaded in the main channel After solidification, 7H9 broth containing each antibiotic was applied to the chamber. All bacterial cells were imaged with an inverted optical microscope (IS71, Olympus).
# (§4) Clinical strains express various phenotypes, particularly, in drug susceptibility. […] Rifampicin, isoniazid, streptomycin, and ethambutol were used as test drugs. For the 131 strains, the highest concentration was 1.3×10^9.
# [13] = test system: clinical strain 131; assay: as above; format: cell-based, Mycobacterium tuberculosis
# Experimental: as §3, §4
# [14] = test system: clinical strain CMS; assay: as above; format: cell-based, Mycobacterium tuberculosis
# Experimental: as §3, §4
# [15] = test system: clinical strain CYD; assay: as above; format: cell-based, Mycobacterium tuberculosis
# Experimental: as §3, §4
# [16] = test system: clinical strain KHS; assay: as above; format: cell-based, Mycobacterium tuberculosis
# Experimental: as §3, §4
# [17] = test system: clinical strain MSH; assay: as above; format: cell-based, Mycobacterium tuberculosis
# Experimental: as §3, §4
# [18] = inoculum 5*10^5 CFU/ml in agarose
# [19] = inoculum 5*10^6 CFU/ml in agarose
# [20] = inoculum 5*10^7 CFU/ml in agarose
# [21] = inoculum 5*10^5 CFU/ml in liquid, unit not given
# [22] = inoculum 5*10^6 CFU/ml in liquid, unit inferred
# [23] = inoculum 5*10^7 CFU/ml in liquid, unit inferred
# [24] = inoculum 10^3/mL, DAC, unit inferred
# [25] = inoculum 10^4/mL, DAC, unit inferred
# [26] = inoculum 10^5/mL, DAC, unit inferred
# [27] = inoculum 10^6/mL, MAC2, unit inferred
# [28] = inoculum 10^7/mL, MAC2, unit inferred
compound,measurement,setting,value
CO/N=C(\C(=O)N[C@@H]1C(=O)N2C(C(=O)[O-])=C(C[N+]3(C)CCCC3)CS[C@H]12)c1csc(N)n1 [Cefepime],"MIC (AST result, DAC)",[1]; [18],0.06 µg/mL
same,"MIC (AST result, DAC)",[1]; [19],0.06 µg/mL
same,"MIC (AST result, DAC)",[1]; [20],0.06 µg/mL
same,"MIC (AST result, DAC)",[2]; [18],0.03 µg/mL
same,"MIC (AST result, DAC)",[2]; [19],0.03 µg/mL
same,"MIC (AST result, DAC)",[2]; [20],0.03 µg/mL
same,"MIC (AST result, DAC)",[3]; [18],< 16 µg/mL
same,"MIC (AST result, DAC)",[3]; [19],< 16 µg/mL
same,"MIC (AST result, DAC)",[3]; [20],< 16 µg/mL
same,"MIC (AST result, MDT)",[4]; [21],All growth
same,"MIC (AST result, MDT)",[4]; [22],0.03 µg/mL
same,"MIC (AST result, MDT)",[4]; [23],0.03 µg/mL
same,"MIC (AST result, MDT)",[5]; [21],All growth
same,"MIC (AST result, MDT)",[5]; [22],4 µg/mL
same,"MIC (AST result, MDT)",[5]; [23],0.03 µg/mL
same,"MIC (AST result, MDT)",[6]; [21],All growth
same,"MIC (AST result, MDT)",[6]; [22],64 µg/mL
same,"MIC (AST result, MDT)",[6]; [23],16 µg/mL
same,MIC,[7]; antibiotic solution recovered from DAC wells after overnight culture with 5*10^5 CFU/ml ESBL positive E. coli,0.06 µg/mL
same,MIC,[7]; antibiotic solution recovered from DAC wells after overnight culture with 5*10^6 CFU/ml ESBL positive E. coli,0.06 µg/mL
same,MIC,[7]; antibiotic solution recovered from DAC wells after overnight culture with 5*10^7 CFU/ml ESBL positive E. coli,0.06 µg/mL
same,MIC,[7]; antibiotic solution recovered from MDT wells after overnight culture with 5*10^5 CFU/ml ESBL positive E. coli,0.03 µg/mL
same,MIC,[7]; antibiotic solution recovered from MDT wells after overnight culture with 5*10^6 CFU/ml ESBL positive E. coli,0.125 µg/mL
same,MIC,[7]; antibiotic solution recovered from MDT wells after overnight culture with 5*10^7 CFU/ml ESBL positive E. coli,0.25 µg/mL
"[H]/N=C(/N)N[C@H]1[C@H](O)[C@@H](O)[C@H](O[C@@H]2O[C@@H](C)[C@](O)(C=O)[C@H]2O[C@@H]2O[C@@H](CO)[C@H](O)[C@@H](O)[C@@H]2NC)[C@@H](N/C(N)=N\[H])[C@@H]1O [SM, streptomycin]",susceptibility determined from the MIC data and the critical concentrations,[8],R
same,MIC,[8],2 µg/mL
same,susceptibility of the strain (in words),[8]; from the MIC data,sensitive
same,susceptibility determined from the MIC data and the critical concentrations,[9],R
same,MIC,[9],> 4 µg/mL
same,susceptibility determined from the MIC data and the critical concentrations,[10],R
same,MIC,[10],> 4 µg/mL
same,MIC (DAC),[11]; [24],2 µg/mL
same,MIC (DAC),[11]; [25],2 µg/mL
same,MIC (DAC),[11]; [26],2 µg/mL
same,MIC (DAC),[11]; [27],2 µg/mL
same,MIC (DAC),[11]; [28],> 2 µg/mL
same,MIC (DAC),[12]; [24],≥ 4 µg/mL
same,MIC (DAC),[12]; [25],≥ 4 µg/mL
same,MIC (DAC),[12]; [26],≥ 4 µg/mL
same,MIC (DAC),[12]; [27],≥ 4 µg/mL
same,MIC (DAC),[12]; [28],≥ 4 µg/mL
same,MIC (DAC),[13]; [24],> 4 µg/mL
same,MIC (DAC),[13]; [25],> 4 µg/mL
same,MIC (DAC),[13]; [26],> 4 µg/mL
same,MIC (DAC),[13]; [27],> 4 µg/mL
same,MIC (DAC),[13]; [28],> 4 µg/mL
same,MIC (DAC),[14]; [25],0.5 µg/mL
same,MIC (DAC),[14]; [26],0.5 µg/mL
same,MIC (DAC),[14]; [27],1 µg/mL
same,MIC (DAC),[14]; [28],1 µg/mL
same,MIC (DAC),[15]; [25],0.5 µg/mL
same,MIC (DAC),[15]; [26],0.25 µg/mL
same,MIC (DAC),[15]; [27],0.5 µg/mL
same,MIC (DAC),[15]; [28],1 µg/mL
same,MIC (DAC),[16]; [25],0.5 µg/mL
same,MIC (DAC),[16]; [26],0.25 µg/mL
same,MIC (DAC),[16]; [27],0.5 µg/mL
same,MIC (DAC),[16]; [28],1 µg/mL
same,MIC (DAC),[17]; [25],0.25 µg/mL
same,MIC (DAC),[17]; [26],0.25 µg/mL
same,MIC (DAC),[17]; [27],1 µg/mL
same,MIC (DAC),[17]; [28],0.5 µg/mL
"CO[C@H]1/C=C/O[C@@]2(C)Oc3c(C)c(O)c4c(O)c(c(/C=N/N5CCN(C)CC5)c(O)c4c3C2=O)NC(=O)/C(C)=C\C=C\[C@H](C)[C@H](O)[C@@H](C)[C@@H](O)[C@@H](C)[C@H](OC(C)=O)[C@@H]1C [RFP, rifampicin]",susceptibility determined from the MIC data and the critical concentrations,[8],S
same,MIC,[8],0.25 µg/mL
same,susceptibility determined from the MIC data and the critical concentrations,[9],R
same,MIC,[9],> 2 µg/mL
same,susceptibility determined from the MIC data and the critical concentrations,[10],R
same,MIC,[10],> 2 µg/mL
same,MIC (DAC),[11]; [24],0.5 µg/mL
same,MIC (DAC),[11]; [25],0.5 µg/mL
same,MIC (DAC),[11]; [26],0.5 µg/mL
same,MIC (DAC),[11]; [27],0.5 µg/mL
same,MIC (DAC),[11]; [28],0.5 µg/mL
same,MIC (DAC),[12]; [24],≥ 2 µg/mL
same,MIC (DAC),[12]; [25],≥ 2 µg/mL
same,MIC (DAC),[12]; [26],≥ 2 µg/mL
same,MIC (DAC),[12]; [27],≥ 2 µg/mL
same,MIC (DAC),[12]; [28],≥ 2 µg/mL
same,MIC (DAC),[13]; [24],> 2 µg/mL
same,MIC (DAC),[13]; [25],> 2 µg/mL
same,MIC (DAC),[13]; [26],> 2 µg/mL
same,MIC (DAC),[13]; [27],> 2 µg/mL
same,MIC (DAC),[13]; [28],> 2 µg/mL
same,MIC (DAC),[14]; [25],0.25 µg/mL
same,MIC (DAC),[14]; [26],0.25 µg/mL
same,MIC (DAC),[14]; [27],0.5 µg/mL
same,MIC (DAC),[14]; [28],0.5 µg/mL
same,MIC (DAC),[15]; [25],0.25 µg/mL
same,MIC (DAC),[15]; [26],0.25 µg/mL
same,MIC (DAC),[15]; [27],0.25 µg/mL
same,MIC (DAC),[15]; [28],0.5 µg/mL
same,MIC (DAC),[16]; [25],0.25 µg/mL
same,MIC (DAC),[16]; [26],0.25 µg/mL
same,MIC (DAC),[16]; [27],0.25 µg/mL
same,MIC (DAC),[16]; [28],0.5 µg/mL
same,MIC (DAC),[17]; [25],0.25 µg/mL
same,MIC (DAC),[17]; [26],0.25 µg/mL
same,MIC (DAC),[17]; [27],0.25 µg/mL
same,MIC (DAC),[17]; [28],0.5 µg/mL
